Laboratory results published in article PMC11944514, “Dengue Virus Inhibitors as Potential Broad-Spectrum Flavivirus Inhibitors” (Pharmaceuticals, 2025).
Like-named read-outs stand apart in the source and are kept apart here.

Key:
Vero E6 [1] = conditions: cited from earlier work
KUNV = conditions: cited from earlier work
TBEV = conditions: cited from earlier work
ZIKV = system: ZIKV; design: method as in PMID 29642580; conditions: reference inhibitor compound; cited from earlier work
[2] = xCELLigence real-time cytotoxicity assay (RTCA), CC50; type: cell-based; conditions: African green monkey, Vero E6 cells, 24 h of exposure
Procedure: As compounds C1, C2, and C3 were relatively toxic (Figure 2A), we determined the selectivity index (SI) of the identified potential broad-spectrum flavivirus inhibitors. As the WST-1 assay tends to underestimate the toxic effect and is unable to detect cytostatic effects, the CC50 of the perspective compounds was measured using a more sensitive xCELLigence real-time cytotoxicity assay (RTCA). […] The full xCELLigence RTCA data are provided in the Supporting Information section (Figures S2 and S3). Thereafter, for each compound, the SI was calculated as a ratio of the CC50 of a compound against its EC50 [36].
Vero E6 cells were seeded on a 16-well E-plate (ACEA Biosciences, Inc., San Diego, CA, USA ) at a density of 5 × 10^3 cells/well and allowed to adhere overnight. On the next day, the studied compounds were added at the final concentrations ranging from 0.078 μM to 5 μM with a two-fold dilution step for compounds C1, C2, and C3, and at the final concentrations ranging from 1.56 μM to 50 μM with a two-fold dilution step for compounds C5 and C6; 0.01% DMSO was used as a solvent control. The cells were incubated for 5 days, and the signals between the electrodes (impedance) were recorded using an RTCA xCELLigence machine (Agilent Technologies, Inc., Santa Clara, CA, USA). […] The CC50 values were calculated using GraphPad Prism 10.0 for Windows, GraphPad Software, v. 10.4.1, Boston, MA, USA, www.graphpad.com (accessed on 16 February 2025).

TBEV-Nanoluc = assay: microbe, parasite or virus in culture; type: cell-based
KUNV-Nanoluc = assay: organism not typed; type: cell-based; conditions: for EC50: Vero C1008, read-out: KUNV EC50, μM
ZIKV-Nanoluc = assay: microbe, parasite or virus in culture; type: cell-based; conditions: for EC50: Zika virus, Vero C1008, read-out: ZIKV EC50, μM
DENV2-Nanoluc = assay: microbe, parasite or virus in culture; type: cell-based; conditions: for EC50: Dengue virus
[3] = system: New Guinea C strain of DENV2; conditions: human Huh7 cells infected for 48 h, Renilla luciferase assay; read-out: EC50 against the New Guinea C strain of DENV2; cited from earlier work
Vero E6 cells = assay: WST-1 cell viability assay, Vero E6; type: cell-based, African green monkey; conditions: Vero E6, 48 h of exposure
Procedure: The cytotoxic effect of all studied compounds was assessed using the WST-1 assay after 48 h of exposure. […] This observation can be explained by the fact that the compound C8 is resazurin, phenoxazine dye, also known as Alamar Blue, which is subject to irreversible metabolic reduction to the resorufin by live mammalian cells. Thus, the cytotoxic effect of this compound cannot be assessed by the WST-1 assay correctly. Therefore, the C8 cytotoxicity was further assessed using the resazurin cell viability assay. This assay allowed us to avoid the interference between the tested compound and dye and obtain more reliable results for colored compounds.
Vero E6 or U2OS cells were seeded on the 96-well plate at a density of 1 × 10^4 cells/well and were allowed to adhere overnight. Next day, the cells were treated with the studied compounds at concentrations ranging from 1 to 100 μM with a ten-fold dilution step. As a solvent control, 0.01% DMSO (Sigma, St. Louis, MO, USA) was used. After 48 h of exposure, 10 μL of WST-1 (10 mg/mL) cell proliferation reagent (Roche, Cat. No. 11644807001) was added to each well, and plates were incubated at 37 °C, 5% CO2 for 2 h. The optical density was then measured at 450 nm using an Epoch Microplate Spectrophotometer (BioTek Instruments, Inc., Winooski, VT, USA). Four independent experiments were carried out in triplicates.

DENV2 [4] = system: DENV2; design: method as in PMID 25878766; conditions: BHK-21 cells; read-out: EC50, inhibition of DENV2 infection; cited from earlier work
DENV2-Nanoluc replicon = type: cell-based
TBEV-Nanoluc replicon = type: cell-based
ZIKV-Nanoluc replicon = type: cell-based
KUNV-Nanoluc replicon = type: cell-based
DENV2 [5] = system: DENV2; design: method as in PMID 20837762; conditions: reference inhibitor compound; cited from earlier work
Vero E6 [6] = system: Vero E6; design: method as in PMID 20837762; conditions: reference inhibitor compound; cited from earlier work

Which results are given for `CCOC(=O)c1c(CSc2ccccc2)n(C)c2cc(Br)c(O)c(CN(C)C)c12` [Arbidol]?
CC50 (Vero E6 [1]): 89.7 µM; EC50 (KUNV): 18.8 µM; EC50 (TBEV): 18.7 µM; EC50 (ZIKV): 12.1 µM

For `CC(C)(C)Oc1cccc2nc(N)nc(N)c12` [Compound C2, 5-(tert-butoxy)quinazoline-2,4-diamine], which CC50 at 24 h [2] is on record?
Its CC50 at 24 h is 0.31 µM.

What about the “antiviral effect against TBEV-Nanoluc (initial screening)” value (TBEV-Nanoluc) of the same molecule?
The value was “clear dose-dependent antiviral effect”.

And the “antiviral effect against KUNV-Nanoluc (initial screening)” value (KUNV-Nanoluc)?
Its value is “decreased the KUNV-Nanoluc activity only at the maximum tested concentrations”.

And the EC50 (KUNV-Nanoluc)?
Its EC50 is 0.26 µM.

What about the “antiviral effect against ZIKV-Nanoluc (initial screening)” value (ZIKV-Nanoluc) of the same molecule?
Its value is “completely inhibited the ZIKV-Nanoluc replication at the maximum tested concentration”.

What about the “concentration at which a statistically significant antiviral effect appeared (ZIKV-Nanoluc)” value (ZIKV-Nanoluc) of the same molecule?
The value was 0.2 µM.

And the EC50 (ZIKV-Nanoluc)?
Its EC50 is 0.48 µM.

What about the “antiviral effect against DENV2-Nanoluc (initial screening)” value (DENV2-Nanoluc) of the same molecule?
The value was “apparent dose-dependent antiviral effects”.

What about the EC50 (DENV2-Nanoluc; DENV2, Vero C1008, read-out: DENV2 EC50, μM) of the same molecule?
Its EC50 is about 0.13 µM.

And the EC50 (DENV2-Nanoluc; DENV2, Vero C1008, read-out: EC50 against DENV2)?
Its EC50 is about 0.13 µM.

And the EC50 [3]?
Its EC50 is 0.0028 µM.

What does the source list for `CN1C(=O)C2(CC(=O)Nc3c2cnn3Cc2ccc(Cl)cc2)c2cc(Cl)ccc21` (stereo not shown) [Compound C6, 5-chloro-1′-[(4-chlorophenyl)methyl]-1-methyl-1,1′,2,5′,6′,7′-hexahydrospiro[indole-3,4′-pyrazolo[3,4-b]pyridine]-2,6′-dione]?
cytotoxic effect (WST-1 assay) (Vero E6 cells): no cytotoxic effect at the maximal tested concentration; EC50 (DENV2 [4]): 0.006 µM; CC50 at 24 h [2]: > 50 µM; antiviral effect against TBEV-Nanoluc (initial screening) (TBEV-Nanoluc): clear dose-dependent antiviral effect; EC50 (TBEV-Nanoluc; read-out: TBEV EC50): 14 µM; antiviral effect against KUNV-Nanoluc (initial screening) (KUNV-Nanoluc): decreased the KUNV-Nanoluc activity only at the maximum tested concentrations; EC50 (KUNV-Nanoluc): 20.6 µM; antiviral effect against ZIKV-Nanoluc (initial screening) (ZIKV-Nanoluc): partially inhibited the virus activity at this concentration; EC50 (ZIKV-Nanoluc): 23.9 µM; antiviral effect against DENV2-Nanoluc (initial screening) (DENV2-Nanoluc): apparent dose-dependent antiviral effects; antiviral effect against DENV2-Nanoluc replicon (DENV2-Nanoluc replicon): most active against all the studied viral replicons; antiviral effect against TBEV-Nanoluc replicon (TBEV-Nanoluc replicon): most active against all the studied viral replicons; antiviral effect against ZIKV-Nanoluc replicon (ZIKV-Nanoluc replicon): most active against all the studied viral replicons; antiviral effect against KUNV-Nanoluc replicon (KUNV-Nanoluc replicon): most active against all the studied viral replicons

Which EC50 (DENV2 [5]) does the source give for `COc1cccc2c1C(=O)c1c(O)c3c(c(O)c1C2=O)C[C@@](O)(C(=O)CO)C[C@@H]3O[C@H]1C[C@H](N)[C@H](O)[C@H](C)O1` [Doxorubicin] here?
The EC50 was 1.2 µM.

And the CC50 (Vero E6 [6])?
The CC50 was 24 µM.
